{"source": "patent US8273700B2", "about": "“Methods and compositions for treatment of cystic fibrosis” (The Johns Hopkins University, priority 2005, dated 2012)", "key": {"NF-κB": {"tested_on": "NF-κB", "conditions": "mammalian cells; cited from earlier work"}, "NFκB": {"tested_on": "NFκB", "assay": "NoShift NFκB binding assay on nuclear extracts of IB3-1 cells", "assay_type": "cell-based, human", "conditions": "for NFκB binding (absorbance at 450 nm): IL1-β 1 ng/ml 12 hrs, transfection 24 hrs or 5 μM bortezomib / 5 μM MLN-273 6 hrs (FIG. 6C)", "procedure": "IB3-1 cells transfected (24 hrs) with ΔVCP, ΔF508 or ΔCHOP were treated with 5 μM bortezomib (6 hrs)/5 μM MLN-273 (6 hrs)/5 mM 4PBA (24 hrs). Cells were induced with IL-β(1 ng/ml) for 12 hrs. After 24 hrs of transfection, nuclear extracts (11) were collected using NucBuster protein extraction kit (Novagen, San Diego, Calif.) and the shift in bound NFκB was measured using NoShift NFκB Binding Assay kit (Novagen, San Diego, Calif.) as specified by the manufacturer. The signal from nuclear extracts was compared with the negative control (minus extract). The specificity of protein binding was established using NFκB specific and mutant competitors. The plates were read at 450 nm on 96-well microplate reader (Molecular Devices) using SOFT-MAX-Pro software. The absorbance readings were used to determine the levels of bound NFκB. The data represents mean of three independent experiments±SD."}, "[1]": {"tested_on": "E-selectin, ICAM-1, and VCAM-1", "conditions": "primary human umbilical vein endothelial cells; cited from earlier work"}, "Hsp70": {"tested_on": "Hsp70", "assay": "Immunoblotting for Hsp70 in IB3-1 cells", "assay_type": "cell-based, human", "conditions": "IB3-1 cells treated with bortezomib 6 hrs (FIG. 3A)", "procedure": "(§1) Cells were lysed directly on plates using M-PER (Pierce Biotech. Inc., Rockford, Ill.) protein lysis buffer containing protease inhibitor cocktail (Roche) after three washes with ice cold PBS. CF bronchial brushings were transferred to lysis buffer. For immunoprecipitation, 500 μg/ml (cell culture)/50 μg/ml (bronchial brushings) total protein extracts were incubated with 50 μl of protein A/G agarose beads (Santa Cruz Biotechnology Inc., Santa Cruz, Calif.) for 3 hours at 4° C. After preclearing, 5 μg of respective primary antibody or pre-immune sera (negative control) was added to each tube. After 1 hour, protein A/G agarose beads (50 μL) were added to each tube and tubes were incubated overnight at 4° C. Beads were washed once with lysis buffer (20 mM Tris-HCl [pH 7.6], 150 mM NaCl, 0.5% Triton X-100 and 10 μM phenylmethylsulfonyl fluoride [PMSF]) followed with two washes with phosphate buffer saline (PBS). The beads were suspended in Laemmli's sample buffer (30 μL) containing β-mercaptoethanol, vortexed for 1 minute, resolved by 4-10% SDS-PAGE and transferred to a 0.4-μm pore size nitrocellulose membrane. Proteins were detected using respective primary antibodies. For pulse chase experiments, CFTR immunoprecipitate was eluted with sample buffer and separated on a 4-8% SDS-PAGE, dried for 2 hours and processed for autoradiography."}, "VCP": {"tested_on": "VCP", "assay": "Immunoblotting for VCP in IB3-1 cells", "assay_type": "cell-based, human", "conditions": "IB3-1 cells treated with bortezomib 6 hrs (FIG. 3A)", "procedure": "as §1"}, "IL8": {"tested_on": "IL8", "assay": "IL8 cytokine ELISA in IL1-β induced IB3-1 cells", "assay_type": "cell-based, human", "conditions": "for IL8 cytokine levels: IL1-β 1 ng/ml 12 hrs"}, "ΔF508-CFTR [2]": {"tested_on": "ΔF508-CFTR", "assay": "Pulse-chase metabolic labeling and CFTR immunoprecipitation in IB3-1 cells", "assay_type": "cell-based, human", "conditions": "metabolic labeling t=2 hrs, transfection 48 hrs or 10 μM bortezomib 6 hrs (FIG. 2D)", "procedure": "(§2) The IB3-1 (ΔF508/W1282X; low level expression of ΔF508-CFTR and no W1282X protein), CFTE (ΔF508-homozygous) and S9 (IB3-1 corrected by AAV-CFTR) cells were maintained in LHC-8 media containing 100 units/ml penicillin, 100 μg/ml streptomycin, 0.25 μg/ml amphotericin B and 10% fetal bovine serum. LHC-8 media was purchased from Biosource and other components were purchased from Gibco (Invitrogen, Carlsbad, Calif.). The cells were plated on 6-well plates and transfected with 4 μg plasmid DNA each of ΔF508/wt-CFTR-GFP and co-transfected with VCP shRNA (ΔVCP), VCPQQ construct (deficient in two AAA ATPase domains, D1 & D2), gp78 siRNA (Δgp78) or gp78ΔC (deficient in VCP binding domain) constructs using Lipofectamine 2000 (Invitrogen, Carlsbad, Calif.) as described by the manufacturer. After 48 hrs of transfection, cells were rinsed three times and starved for 1 hr in methionine- and cysteine-free Dulbecco's modified Eagle's medium (DMEM). Cells were pulse labeled with 250 μci/ml [^35S]-methionine and cysteine (ICN Biomedical, Irvine, Calif.) for 30 min and than chased in DMEM containing 10 mM methionine and 4 mM cysteine for indicated times.\n(§3) Cells were lysed directly on plates using M-PER (Pierce Biotech. Inc., Rockford, Ill.) protein lysis buffer containing protease inhibitor cocktail (Roche) after three washes with ice cold PBS. […] Proteins were detected using respective primary antibodies. […]"}, "wt-CFTR": {"tested_on": "wt-CFTR", "assay": "Pulse-chase metabolic labeling and CFTR immunoprecipitation in S9 cells", "assay_type": "cell-based, human", "conditions": "S9 cells transfected with wt-CFTR; ΔVCP 48 hrs or 10 μM bortezomib 6 hrs (FIG. 2B)", "procedure": "as §2, §3"}, "[3]": {"tested_on": "streptococcal cell wall-induced polyarthritis", "conditions": "rat; cited from earlier work"}, "CFTR": {"target": "T1, CFTR (Homo sapiens, UniProt P13569, DEL508-508)", "T1 construct": "expressed in transfected cells; host or cells: IB3-1 (ΔF508/W1282X) and CFTE (ΔF508 homozygous) cells", "T1 sequence (P13569 with tags, fused parts or gaps DEL508-508)": "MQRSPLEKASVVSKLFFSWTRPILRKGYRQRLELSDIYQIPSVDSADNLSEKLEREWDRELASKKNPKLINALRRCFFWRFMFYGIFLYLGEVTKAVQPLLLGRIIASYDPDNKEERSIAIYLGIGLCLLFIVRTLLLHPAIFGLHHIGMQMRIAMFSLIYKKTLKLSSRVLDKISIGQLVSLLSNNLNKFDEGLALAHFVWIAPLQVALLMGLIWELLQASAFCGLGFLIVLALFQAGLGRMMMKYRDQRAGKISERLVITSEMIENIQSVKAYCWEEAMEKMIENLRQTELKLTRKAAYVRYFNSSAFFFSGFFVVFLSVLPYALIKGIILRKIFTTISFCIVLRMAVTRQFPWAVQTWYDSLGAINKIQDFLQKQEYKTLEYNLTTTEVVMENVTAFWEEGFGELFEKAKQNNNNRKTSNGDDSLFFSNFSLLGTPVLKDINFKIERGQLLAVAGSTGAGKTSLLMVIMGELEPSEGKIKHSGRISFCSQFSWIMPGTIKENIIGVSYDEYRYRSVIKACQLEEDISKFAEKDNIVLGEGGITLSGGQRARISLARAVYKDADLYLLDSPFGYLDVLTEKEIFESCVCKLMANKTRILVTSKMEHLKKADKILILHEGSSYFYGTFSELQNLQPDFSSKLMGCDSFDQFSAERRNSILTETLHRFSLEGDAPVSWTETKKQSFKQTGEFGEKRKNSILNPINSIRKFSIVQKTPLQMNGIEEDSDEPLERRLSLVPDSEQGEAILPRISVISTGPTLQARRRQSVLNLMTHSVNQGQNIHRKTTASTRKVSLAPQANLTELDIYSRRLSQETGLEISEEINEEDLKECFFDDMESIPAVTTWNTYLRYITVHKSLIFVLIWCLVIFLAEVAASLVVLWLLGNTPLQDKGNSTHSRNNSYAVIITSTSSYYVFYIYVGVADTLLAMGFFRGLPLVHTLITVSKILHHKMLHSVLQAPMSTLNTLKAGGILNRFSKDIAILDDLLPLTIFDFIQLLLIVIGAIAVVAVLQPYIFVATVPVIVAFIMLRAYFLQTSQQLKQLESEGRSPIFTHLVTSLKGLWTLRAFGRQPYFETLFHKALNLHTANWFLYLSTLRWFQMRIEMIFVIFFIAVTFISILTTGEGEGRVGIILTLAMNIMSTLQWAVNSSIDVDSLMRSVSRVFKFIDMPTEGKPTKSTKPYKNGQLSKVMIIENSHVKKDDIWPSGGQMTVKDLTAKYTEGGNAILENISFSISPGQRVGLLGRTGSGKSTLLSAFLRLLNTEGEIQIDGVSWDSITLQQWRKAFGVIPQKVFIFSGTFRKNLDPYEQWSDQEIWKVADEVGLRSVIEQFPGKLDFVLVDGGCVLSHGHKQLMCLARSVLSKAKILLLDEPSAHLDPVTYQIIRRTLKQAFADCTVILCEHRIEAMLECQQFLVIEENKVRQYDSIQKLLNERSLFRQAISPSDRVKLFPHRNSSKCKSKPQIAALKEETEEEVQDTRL", "assay": "MQAE assay of CFTR-mediated chloride transport in IB3-1 cells", "assay_type": "cell-based", "conditions": "for MQAE fluorescence (Cl- channel activity): 10 μM forskolin or genistein, 5 μM CFTR inhibitor 172 or 14-22 amide (FIG. 5A)", "procedure": "CFTR-mediated chloride transport activity in IB3-1 cells transfected with ΔVCP, VCPQQ, Δgp78 and gp78ΔC constructs, and treated with bortezomib (1, 5 or 10 μM) was assayed by the halide-sensitive dye, MQAE. Fluorescence of MQAE is quenched by halides. Cells were grown on glass coverslips in DMEM containing 10% FBS. Cells were loaded with the dye by hypotonic shock at 37° C. for 40 min in Opti-MEM/water (1:1) containing 10 mM MQAE, washed and then mounted in a perfusion chamber for fluorescence measurements. Fluorescence was measured using a Zeiss inverted microscope coupled to a CCD camera Excitation and emission wavelengths were 350 nm and 460 nm, respectively. The stage and objective lenses were maintained at 37° C. The media was kept flowing through the perfusion chamber at 1 ml/min using a peristaltic pump. Both 10 μM forskolin and 10 μM genistein were used to induce Cl^− transport in IB3-1 cells. CFTR was inhibited with either 5 μM CFTR inhibitor 172 (12) or 14-22 amide (Calbiochem, San Diego, Calif.) to reduced cAMP mediated phosphorylation. Chloride efflux was calculated using following equations: F0/FCl=1+[Cl-]i*Ksv (1) F0=F20*(1+0.02*Ksv) (2) (dCl/dt)=F0/[Ksv*(FCl)2]*dFCl/dt (3)"}, "IB3-1 cells": {"tested_on": "IB3-1 cells", "assay": "Microscopic examination of cell morphology", "assay_type": "cell-based, human", "conditions": "10 μM bortezomib 6 hrs, phase microscopy (data not shown)"}, "gp78": {"tested_on": "gp78", "assay": "Immunoblotting for gp78 in IB3-1 cells", "assay_type": "cell-based, human", "conditions": "IB3-1 cells treated with bortezomib 6 hrs (FIG. 3A)", "procedure": "as §1"}, "proteasome": {"tested_on": "proteasome", "assay": "Protease activity in IB3-1 cells", "assay_type": "cell-based, human", "conditions": "10 μM, 6 hrs treatment"}, "Hsp40": {"tested_on": "Hsp40", "assay": "Immunoblotting for Hsp40 in IB3-1 cells", "assay_type": "cell-based, human", "conditions": "IB3-1 cells treated with bortezomib 6 hrs (FIG. 3A)", "procedure": "as §1"}, "ΔF508-CFTR [4]": {"tested_on": "ΔF508-CFTR", "assay": "Pulse-chase metabolic labeling and CFTR immunoprecipitation in CFTE cells", "assay_type": "cell-based, human", "conditions": "CFTE cells transfected with ΔF508-CFTR, 10 μM bortezomib 6 hrs, 42 hrs post-transfection (FIG. 2C)", "procedure": "as §2, §3"}, "ΔF508-CFTR [5]": {"tested_on": "ΔF508-CFTR", "design": "dose or concentration left out as unconfirmed", "conditions": "cited from earlier work"}, "[6]": {"conditions": "transfection 24 hrs or 5 μM bortezomib / 5 μM MLN-273 6 hrs (FIG. 6B)"}}, "note": "Entries after “also recorded” stand apart in the source; their conditions may differ. Where a SMILES comes first, the peptide text is derived from it. [ ]: non-standard residue; d: D form. Nle = CCCC[C@H](N)C(=O)O"}
{"smiles": "CC(C)C[C@H](NC(=O)[C@H](Cc1ccccc1)NC(=O)c1cnccn1)B(O)O", "note": "[bortezomib, pyrazylcarbonyl-Phe-Leu-boronate]", "values": [{"measurement": "NF-κB activation and NF-κB-dependent gene expression", "setting": "NF-κB", "value": "inhibit NF-κB activation and NF-κB-dependent gene expression"}, {"measurement": "NFκB binding (absorbance at 450 nm)", "setting": "NFκB", "value": "significantly inhibited"}, {"measurement": "combined effect of ΔCHOP and bortezomib on NFκB binding", "setting": "NFκB; ΔCHOP 24 hrs plus 5 μM bortezomib 6 hrs, IL1-β 1 ng/ml (FIG. 6C)", "value": "synergistic effect"}, {"measurement": "TNF-α-induced gene expression of cell-surface adhesion molecules", "setting": "[1]", "value": "inhibits"}, {"measurement": "Hsp70 protein level", "setting": "Hsp70", "value": "Induction"}, {"measurement": "Hsp70 protein level", "setting": "Hsp70; listed as Bortezomib", "value": "induced"}, {"measurement": "VCP protein level", "setting": "VCP", "value": "inhibition"}, {"measurement": "VCP protein level", "setting": "VCP; listed as Bortezomib", "value": "inhibited"}, {"measurement": "IL8 cytokine levels", "setting": "IL8; [6]", "value": "significantly inhibited"}, {"measurement": "IL8 cytokine levels", "setting": "IL8; transfection 48 hrs or 5 μM bortezomib 6 hrs (FIG. 6A)", "value": "significantly downregulated; also recorded: significantly inhibited"}, {"measurement": "combined effect of ΔCHOP and bortezomib on IL8 down regulation", "setting": "IL8; ΔCHOP 24 hrs plus 5 μM bortezomib 6 hrs, IL1-β 1 ng/ml (FIG. 6B)", "value": "synergistic effect"}, {"measurement": "level of immature B form of ΔF508-CFTR", "setting": "ΔF508-CFTR [2]", "value": "partially rescues"}, {"measurement": "rescue of ΔF508-CFTR from ERAD", "setting": "ΔF508-CFTR [2]", "value": "partially rescued ΔF508-CFTR"}, {"measurement": "wt-CFTR maturation and stability, band B to band C", "setting": "wt-CFTR", "value": "substantial amounts of mature band C; also recorded: stabilizes the wild type-CFTR mature (C-form)"}, {"measurement": "T cell-dependent chronic phase of the inflammatory response", "setting": "[3]", "value": "markedly inhibited"}, {"measurement": "neutrophil-predominant acute phase of the inflammatory response", "setting": "[3]", "value": "attenuated"}, {"measurement": "genistein mediated chloride efflux", "setting": "CFTR; IB3-1 cells transfected with ΔF508-CFTR, bortezomib 5 or 10 μM for 6 hrs, bars in mM/s (FIG. 5C)", "value": "augmented chloride efflux; also recorded: significantly induced"}, {"measurement": "combined effect with genistein on rescue of functional ΔF508-CFTR", "setting": "CFTR; IB3-1 cells, with genistein (FIG. 5C)", "value": "synergistic effect"}, {"measurement": "morphology of treated vs untreated monolayers", "setting": "IB3-1 cells", "value": "no difference in morphology"}, {"measurement": "gp78 protein level", "setting": "gp78", "value": "no change"}, {"measurement": "protease activity", "setting": "proteasome", "value": "partial inhibition"}, {"measurement": "Hsp40 protein level", "setting": "Hsp40", "value": "no change"}, {"measurement": "ΔF508-CFTR accumulation and rescue", "setting": "ΔF508-CFTR [4]", "value": "significant increase in the accumulation and stabilization of the B form; also recorded: rescues the ΔF508-CFTR mature (C-form) by 2 hrs"}]}
{"smiles": "O=c1c(-c2ccc(O)cc2)coc2cc(O)cc(O)c12", "note": "[genistein]", "values": [{"measurement": "MQAE fluorescence (Cl- channel activity)", "setting": "CFTR; IB3-1 cells", "value": "significant change"}, {"measurement": "MQAE fluorescence (Cl- channel activity)", "setting": "CFTR; IB3-1 cells, listed as Genistein", "value": "significant increase"}]}
{"smiles": "CCCC[C@@H](C=O)NC(=O)[C@H](CC(C)C)NC(=O)[C@H](CC(C)C)NC(C)=O", "note": "[ALLN, N-acetyl-leucylleucyl-Norleucinal] (Ac-Leu-Leu-[Nle]-aldehyde)", "values": [{"measurement": "ΔF508-CFTR degradation", "setting": "ΔF508-CFTR [5]", "value": "blocks ΔF508-CFTR it degradation"}]}
{"smiles": "O=C(O)c1ccc(/C=C2\\SC(=S)N(c3cccc(C(F)(F)F)c3)C2=O)cc1", "note": "[172 inhibitor]", "values": [{"measurement": "MQAE fluorescence (Cl- channel activity)", "setting": "CFTR; IB3-1 cells", "value": "block the cAMP mediated cystic fibrosis transmembrane receptor (CFTR) activity"}]}
{"smiles": "CC(C)C[C@H](NC(=O)[C@H](Cc1cccc2ccccc12)NC(=O)N1CCOCC1)B(O)O", "note": "[MLN273]", "values": [{"measurement": "NFκB binding (absorbance at 450 nm)", "setting": "NFκB", "value": "significantly inhibited"}, {"measurement": "IL8 cytokine levels", "setting": "IL8; [6]", "value": "significantly inhibited"}]}
